For series [1] the following is noted: 30 mg/kg, mouse CIA experiment; cited from earlier work.
Another series deals with THP-1 cells. As to the kind of experiment: THP-1 repression of TNFα/IFNγ-induced MCP-1, IL-6, IL-8 release. The series is classed as cell-based, human. Conditions: for IC50: Homo sapiens, THP-1, TNFα (60 ng/ml)/IFNγ (40 ng/ml); for Max. eff., IL-6 repression / Max. eff., IL-8 repression / Max. eff., MCP-1 repression: THP-1, I/T, prednisolone = 100%. The procedure: After 6 hours total RNA was isolated and further processed for microarray hybridization as described for the HepG2 cells. The data from all microarray experiments have been deposited in the NCBI Gene Expression Omnibus (GEO) under accession number (identifier will be included in proof). […] Expression of FKBP51, MCP-1, IL-6 and IL-8 protein was measured by specific […]; #A[…] [MCP-1], #A[…] [IL-6] and #A[…] [IL-8]) according to the manufacturer manual. […] Expression of FKBP51, DUSP1 and GILZ was measured by Q-PCR according to the same procedure as described for the HepG2 cells. In this case the following primer-pairs were used: for GAPDH: [NT] and [NT]; for FKBP51: [NT] and [NT]; for DUSP1: [NT] and [NT]; for GILZ: [NT] and [NT]. For the evaluation of protein expression, cells were incubated overnight with a whole dose range of compounds. Supernatants were collected to determine cytokine levels and cell lysates were generated by repeated freeze-thaw cycles to measure expression of FKBP51 protein. Expression of FKBP51, MCP-1, IL-6 and IL-8 was measured by specific […]; #A[…] [MCP-1], #A[…] [IL-6] and #A[…] [IL-8]) according to the manufacturer manual. […] Samples were incubated for 60 min at 23 C. […] Plates were measured using an EnVision-Alpha Reader.

In series [2] the test system is endometrium in estrogen-primed immature rabbits. The series can be described thus: anti-McPhail test (antagonistic, anti-progestational activity). The series is classed as in vivo, rabbit. The note with it: 0-4 scale; 7 days with progesterone; RU486 4 mg/kg/day, Org 214007-0 0.5 mg/kg/day oral; n=2. The method, then:
For the anti-McPhail test, the estrogen-primed rabbits were subsequently treated for 7 days with inducer progesterone (0.25 mg/kg/day s.c.) in combination with an oral treatment of either placebo, reference RU486 (4 mg/kg/day) or Org 214007-0 (0.5 mg/kg/day). The uterus preparation and evaluation of the endometrium was performed as described above.
For the antagonistic test, after oestrogen priming, rabbits were treated for 7 days with progesterone and placebo, reference RU486 or Org 214007-0. One day after the last treatment the uterus was dissected and endometrial development was scored on a 0-4 scale. […] After treatment with Org 214007-0 no reduction of the endometrial transformation was observed (score 3.31), indicative for no anti-progestagenic activity

In series [3] the target is T1, human estrogen receptor alpha (ERα) (Homo sapiens, UniProt P03372).
T1 construct: expressed in transfected cells; host or cells: CHO K1
T1 sequence (P03372 1-595): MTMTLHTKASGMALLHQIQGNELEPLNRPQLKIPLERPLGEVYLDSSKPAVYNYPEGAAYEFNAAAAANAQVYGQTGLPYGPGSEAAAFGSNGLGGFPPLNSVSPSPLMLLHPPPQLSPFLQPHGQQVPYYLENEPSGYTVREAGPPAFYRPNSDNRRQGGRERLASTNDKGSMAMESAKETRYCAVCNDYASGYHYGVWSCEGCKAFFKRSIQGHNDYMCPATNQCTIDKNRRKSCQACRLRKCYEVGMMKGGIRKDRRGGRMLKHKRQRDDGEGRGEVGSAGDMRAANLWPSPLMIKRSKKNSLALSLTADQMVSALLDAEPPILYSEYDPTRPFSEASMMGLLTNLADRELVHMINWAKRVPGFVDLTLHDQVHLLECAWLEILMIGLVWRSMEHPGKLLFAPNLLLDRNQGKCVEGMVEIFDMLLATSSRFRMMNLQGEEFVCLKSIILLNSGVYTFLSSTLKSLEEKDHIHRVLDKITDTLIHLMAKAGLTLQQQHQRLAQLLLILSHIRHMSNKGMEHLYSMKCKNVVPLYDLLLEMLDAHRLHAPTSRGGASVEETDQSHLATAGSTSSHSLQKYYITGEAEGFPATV
As to the kind of experiment: CHO steroid receptor reporter assay, ERα / rat oxytocin-Luc. The series is classed as cell-based. The text has this:
For monitoring both human steroid receptor agonistic as well as antagonistic activity of compounds, Chinese hamster ovary (CHO) K1 cells stably co-transfected with the specific human steroid receptor and its respective reporter construct were used (as previously described).
For human glucocorticoid receptor (GR)-specific activity CHO-GR B4.8 cells containing both recombinant human GR as well as a reporter construct consisting of the mouse mammary tumor virus (MMTV) promotor and the luciferase reporter gene, were used. Compound was incubated alone (in the agonistic setup) or with 50 nM dexamethasone (in the antagonistic setup) overnight. Hereafter, 200 µl medium was removed and 50 µl luciferine substrate solution from the LucLite luminescence kit (Packard, Meriden, USA) was added. […] Percentage maximal antagonistic efficacy was related to the maximal antagonistic efficacy of reference GR antagonist Org 34116. Similar procedures were followed for the other human steroid receptor assays (for more detailed information see Supportive Information) (SI text).
Similar procedures were followed for the other human steroid receptor assays containing combinations of human progesterone receptor B (PR-B) and MMTV-Luc, human androgen receptor (AR) and MMTV-Luc, human chimeric glucocorticoid-mineralocorticoid receptor (GGM, Trapp et al. (1994), Neuron 13: 1457) and MMTV-Luc, human estrogen receptor alpha (ERα) and rat oxytocin-Luc (45), and human estrogen receptor beta (ERβ) and rat oxytocin-Luc, respectively.
(In general: Reporter assays use an easily measured gene product as a stand-in for the process of interest.)

Read-outs that look alike come from different tables or passages of the source. Bounds are passed on as bounds.

By IC50 is commonly meant the midpoint of a concentration-inhibition curve. In the case of `C[C@]12C=CC(=O)C=C1CC[C@@H]1[C@@H]2[C@@H](O)C[C@@]2(C)[C@H]1CC[C@]2(O)C(=O)CO` [prednisolone, reference compound], the serum insulin levels result in series [1] is on record as “significantly elevated”. Further, the IC50 worked out at 34.1 nM in the series on THP-1 cells (read-out: IC50, IL-6 release); 36.9 nM with THP-1 cells (read-out: IC50, IL-8 release); 69.9 nM in the series on THP-1 cells (read-out: IC50, MCP-1 release). In the series on THP-1 cells, the “Max. eff., IL-6 repression” value worked out at 100%. Moreover, the “Max. eff., IL-8 repression” value in the series on THP-1 cells was found to be 100%. Also, in the series on THP-1 cells, the “Max. eff., MCP-1 repression” value was 100%.
What is called EC50 is the midpoint of the concentration-response curve. Consider `Cc1nnsc1C(=O)N[C@H]1CCN2c3ccc(C#N)cc3[C@@H](C)c3ccccc3[C@@H]2C1` [Org 214007-0], for which the “endometrial development score, antagonistic test” value in series [2] is reported as 3.31. In addition, the EC50 in series [3] (read-out: EC50 (agonist)) was above 100 nM. The IC50 in series [3] (read-out: IC50 (antagonist)) is above 1000 nM. In addition, in series [3] (relative to reference compound), the “% agonist potency” value is below 0.01% and the “% antagonist potency” value was below 1.86%. The IC50 with THP-1 cells (read-out: IC50, IL-6 release) was 9.3 nM. Besides, in the series with THP-1 cells (read-out: IC50, IL-8 release), the IC50 is 11 nM. The IC50 with THP-1 cells (read-out: IC50, MCP-1 release) amounted to 23.5 nM. In the series with THP-1 cells, the “Max. eff., IL-6 repression” value is listed as 78 (±9) %; the “Max. eff., IL-8 repression” value is on record as 74 (±10) %; the “Max. eff., MCP-1 repression” value is given as 44 (±8) %.

The record behind these values is PMC3495945, “Org 214007-0: A Novel Non-Steroidal Selective Glucocorticoid Receptor Modulator with Full Anti-Inflammatory Properties and Improved Therapeutic Index” (PLoS ONE, 2012).
